Results published in patent US11867690B2, “Identification of functional cell states” ([…] AG, priority 2014, dated 2024).
Entries after “also recorded” stand apart in the source; their conditions may differ.

Assays:
HL-60 cells [1] = experiment: Cell physiology assay plate 1a: flow cytometry with MBBR, CALCEIN AM, MITOSOX RED and SYTOXRED; format: cell-based, human
Protocol: (§1) Cells were deposited into 384 well plates (1×10^6 cells in 40 μl tissue culture media), and serial dilutions of test compounds (or vehicle in the case of controls) were deposited in individual wells using standard robotic techniques. Compound deposition and dilution was performed by BIOMEK FX (5 or 10-step dilutions from 100 to 0.005 μM). Dilutions were prepared from stock solutions of compounds dissolved initially in 100% DMSO. Final volume deposited into each well is 2 μl of each compound dilution (compounds are in a final concentration of 1% DMSO). After incubation in a tissue culture incubator (5% CO2 at 37° C.) for varying periods of time (typically 4 hours), plates were centrifuged at room temperature, followed by removal of 20 μl supernatant fluid. After vibration of the plate to re-suspend cells, a dye mix (Plate 1a Monobromobimane, CALCEIN AM, MITOSOX™ and SYTOSOX™ RED; plate 1b VYBRANVIOLET™ Live Cell Cycle dye, JC-9, and SYTOSOX™ RED) was added in a total volume of 20 μl, followed by an additional mixing step.
Each well of the 384-well plate was sampled with a 6 second sip time, plus 1 second delay between wells, resulting in a total read time for each plate of approximately 45 minutes. Data was acquired using a CYAN™ flow cytometer, with the […]™ software used to compile files for each well on an individual plate using an FCS format. Data for each plate was subsequently analyzed for several quality assurance parameters (total number of events per well, numbers of events associated with morphologically normal events, number of dead cells), as described below.
Flow cytometric analyses of intrinsic cell properties (forward light scatter and light scattered orthogonal to the laser beam) and fluorescence signals derived from the dyes listed in Table 1 was carried out for plates 1a and 1b.
Chem. Soc. […] Technol. […] MITOSOX™ RED is a compound that can diffuse into viable cells and reacts with superoxide anion species, particularly products of mitochondrial respiration; conditions such as cell stress can cause mitochondria to respond (sometimes rapidly) by increasing respiration and/or release superoxide anions; and • (3) SYTOXRED™ to measure cell viability (loss of nuclear membrane integrity). SYTOXRED™ is a high-affinity DNA stain that can only pass through the cytoplasmic and nuclear membranes of cells which have lost the integrity of both membranes; thus, brightly fluorescent cells are dead.

[2] = system: phosphorylation of the downstream STAT5 target in K562 cells; experiment: Phosphorylation of STAT5 in K562 cells by flow cytometry; format: cell-based; conditions: Homo sapiens, 0.5 h, 30 min
Protocol: Cells were deposited onto dilutions of test compounds deposited into individual wells of […], as indicated above. Following incubation in a tissue culture incubator (5% CO2 at 37° C.) for 30 minutes to 12 hr, the cells were pelleted by centrifugation, the supernatant was removed, the cells were re-suspended by vibration in the remaining supernatant fluid, and 50 μl of fixative (1.2% formaldehyde in PBS) was added. Following 15 min incubation (at 37° C.), cells were pelleted by centrifugation, supernatant removed, and the cells were suspended by vibrating the plate.
Cell were permeabilized by adding 150 μl cold absolute methanol, followed by incubation at 4° C. for 15 minutes. Permeabilized cells were centrifuged, supernatant removed, and cells were washed three times with cold (4° C.) PBS containing 4% FBS. Following the final wash, cells were centrifuged, the supernatant was removed, and cells were re-suspended in an antibody cocktail (total volume 20 μl) appropriate for that experiment.

HL-60 cells [3] = experiment: Plate 1b: mitochondrial membrane potential (MMP) measured with JC-9 by flow cytometry; format: cell-based, human
Protocol: as §1, with “step. Plates were returned to the tissue culture incubator (5% CO2 at 37° C.) for an additional 15 min (plate 1a) or 30 min (plate 1b), followed by immediate analysis using the […]-CYAN™.” for “step.”
Measurements identical to those described in Example 2 above were made using a second combination of dyes: • (1) VYBRANVIOLET™ to measure cell cycle in live cells; • (2) JC-9 to measure mitochondrial membrane potential (MMP); and • (3) SYTOXRED™ (as described herein above).
The measurement of mitochondrial membrane potential (MMP) with JC-9 was performed with two independent fluorescence channels (green and red fluorescence signals), as changes in MMP cause aggregation of the dye, with different fluorescence emission by the aggregated versus non-aggregated dye molecules. […] At higher valinomycin concentrations, red fluorescence […]. A unique aspect of this assay is that it correlates changes in MMP (JC-9) and cell death (SYTOXRED™) with the phases of the cell cycle (G1, S, and G2M).
An identical study to the one described before was conducted with exposing HL60 cells exposed to 1.23 μM idarubicin, an analog of daunorubicin which inserts into DNA and prevents it from unwinding during DNA replication and arrests cell division.

[4] = system: human peripheral blood monocytes; experiment: Kinetics of signal transduction responses to LPS in whole blood monocytes by flow cytometry; format: cell-based; conditions: LPS alone
From the text: Herein, specific dyes that monitor cell membrane permeability (marker for cell death), nuclear membrane permeability (marker for cell death), signal transduction pathways implicated in DNA damage (phospho-Histone H2A, phospho-ATM/ATR, phospho-p53), signal transduction pathways implicated in inflammation (e.g., NF-kB), signal transduction via the MAP kinase pathways (ERK, SAP/JNK, p38), signal transduction via the PI3 Kinase pathway (Akt, GSK3B, RS6K, S6), early apoptotic pathways (e.g., annexin V), mid apoptotic pathways (e.g., cleaved caspase), late apoptotic pathways (e.g., PARP/DNA fragmentation), etc. may be employed.

[5] = 33 μM, cells with normal morphology
[6] = 33 μM, population with altered morphology

Molecule: N#CC(C#N)=NNc1ccc(OC(F)(F)F)cc1 [FCCP, carbonyl cyanide-4-(trifluoromethoxy)phenylhydrazone]
- CALCEIN AM (HL-60 cells [1]; [5]): normal
- GSH (HL-60 cells [1]; [5]): normal
- ROS (HL-60 cells [1]; [5]): increased ROS
- nuclear and cytoplasmic membranes (SYTOX Red uptake) (HL-60 cells [1]; [5]): intact nuclear and cytoplasmic membranes
- CALCEIN (HL-60 cells [1]; [6]): increased CALCEIN
- GSH (HL-60 cells [1]; [6]): reduced GSH
- ROS (HL-60 cells [1]; [6]): increased ROS
- SYTOXRED (HL-60 cells [1]; [6]): higher SYTOXRED™

Molecule: Cc1ccc(NC(=O)c2ccc(CN3CCN(C)CC3)cc2)cc1Nc1nccc(-c2cccnc2)n1 [GLEEVEC, imatinib]
- inhibition at 2 µM [2]: > 95%

Molecule: CNCCC(Oc1ccc(C(F)(F)F)cc1)c1ccccc1 (centres unmarked) [fluoxetine]
- CALCEIN AM (HL-60 cells [1]; 100 μM): reduced CALCEIN AM
- GSH (MBBR) (HL-60 cells [1]; 100 μM): reduced GSH
- ROS (MITOSOX RED) (HL-60 cells [1]; 100 μM): increased ROS
- cell death in relation to cell cycle (SYTOXRED histogram) (HL-60 cells [1]; 100 μM): cells are dying throughout the cell cycle

Molecule: CC(=O)[C@]1(O)Cc2c(O)c3c(c(O)c2[C@@H](O[C@H]2C[C@H](N)[C@H](O)[C@H](C)O2)C1)C(=O)c1ccccc1C3=O [idarubicin]
- JC-9 red fluorescence versus untreated control cells (HL-60 cells [3]; 1.23 μM): significantly higher
- JC-9 green fluorescence (HL-60 cells [3]; FIG. 6B): does not increase

Molecule: CO/C(=C/C(N)=O)[C@H](C)[C@H](/C=C/c1csc(-c2csc([C@@H](C)/C=C/C=C/C(C)C)n2)n1)OC [myxothiazol]
- CALCEIN AM (HL-60 cells [1]; 100 μM): decrease
- GSH (MBBR) (HL-60 cells [1]; 100 μM): decrease
- ROS (MITOSOX RED) (HL-60 cells [1]; 100 μM): increase
- SYTOXRED (cytoplasmic and nuclear membrane permeability, viability) (HL-60 cells [1]; 100 μM): increase
- cell morphology (light scatter) (HL-60 cells [1]; 100 μM): significant change in cell morphology
- SYTOXRED (cytoplasmic and nuclear membrane permeability, viability) (HL-60 cells [1]; 100 μM, listed as myxothiozol): perturbs cytoplasmic and nuclear membrane permeability (viability)

Molecule: CC(C)[C@@H]1NC(=O)[C@H](C)OC(=O)[C@@H](C(C)C)NC(=O)[C@@H](C(C)C)OC(=O)[C@H](C(C)C)NC(=O)[C@H](C)OC(=O)[C@@H](C(C)C)NC(=O)[C@@H](C(C)C)OC(=O)[C@H](C(C)C)NC(=O)[C@H](C)OC(=O)[C@@H](C(C)C)NC(=O)[C@@H](C(C)C)OC1=O [valinomycin]
- concentration at peak of JC-9 red and green fluorescence (HL-60 cells [3]; FIG. 6A legend): ~0.045 µM
- concentration at peak JC-9 green fluorescence (HL-60 cells [3]; FIG. 6A, Example 4A): ~0.05 µM
- JC-9 red and green fluorescence (HL-60 cells [3]; with increasing concentration, FIG. 6A): initially increase; also recorded: significantly higher

Molecule: lipopolysaccharide [LPS]
- ERK, Akt and S6 (phosphorylation) [4]: activated; also recorded: activates (phosphorylates)
- Iκ kinase (proteasomal degradation of IκBα) [4]: activates
